Here are results for 1 cell line from the supplement of paper PMC10307832.

What all share (assay): relative viability (nuclei count vs DMSO), 5 days (fraction); higher = more cells survive
Compound in experiment [1]: COc1cc2nc(N3CCCN(C)CC3)nc(NC3CCN(Cc4ccccc4)CC3)c2cc1OC + Cc1cc(Nc2cc(N3CCN(C)CC3)nc(Sc3ccc(NC(=O)C4CC4)cc3)n2)n[nH]1 [Tozasertib] (partner 0.1 µM)
The procedure, abridged:
(§1)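 Five library-drug doses in √10 steps were combined with a fixed anchor-drug dose, or a single drug was given alone, by pin tool to lung cancer cell lines in 1536-well plates the day after seeding. Nuclei were stained and counted after 5 days. Relative viability is the nuclei count in treated wells over that in vehicle wells, taken as the median of duplicate plates.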

Compound in experiment [2]: Cc1cc([C@@H](C)Nc2ccccc2C(=O)O)c2nc(N3CCOCC3)cc(=O)n2c1 [AZD6482] + CC(=O)c1c(C)c2cnc(Nc3ccc(N4CCNCC4)cn3)nc2n(C2CCCC2)c1=O [Palbociclib] (partner 0.5 µM)
The procedure, abridged: as §1

Compound in experiment [3]: Cc1cc([C@@H](C)Nc2ccccc2C(=O)O)c2nc(N3CCOCC3)cc(=O)n2c1 [AZD6482] + Cc1nc(Nc2ncc(C(=O)Nc3c(C)cccc3Cl)s2)cc(N2CCN(CCO)CC2)n1 [Dasatinib] (partner 0.075 µM)
The procedure, abridged: as §1

Compound in experiment [4]: Cc1cc([C@@H](C)Nc2ccccc2C(=O)O)c2nc(N3CCOCC3)cc(=O)n2c1 [AZD6482] + O=C(c1cc(Cc2n[nH]c(=O)c3ccccc23)ccc1F)N1CCN(C(=O)C2CC2)CC1 [Olaparib] (partner 8 µM)
The gist of the method: as §1

UMC-11: the relative viability in experiment [1] (first compound 0.2 µM) was 0.202; in experiment [1] (first compound 0.6325 µM) it was 0.214; in experiment [1] (first compound 2 µM), 0.212; in experiment [1] (first compound 6.325 µM), 0.2; in experiment [2] (first compound 0.08 µM), 0.342; in experiment [2] (first compound 0.253 µM), 0.297. The relative viability stood at 0.321 in experiment [2] (first compound 0.8 µM); 0.324 in experiment [2] (first compound 8 µM); 0.457 in experiment [3] (first compound 0.08 µM); 0.48 in experiment [3] (first compound 0.253 µM); 0.472 in experiment [3] (first compound 0.8 µM); 0.416 in experiment [3] (first compound 2.53 µM). The relative viability in experiment [3] (first compound 8 µM) worked out at 0.559; in experiment [4] (first compound 0.08 µM), 0.738; in experiment [4] (first compound 0.253 µM), 0.358; in experiment [4] (first compound 0.8 µM) it was 0.357; in experiment [4] (first compound 2.53 µM), 0.345; in experiment [4] (first compound 8 µM), 0.338.
